In patent US4746349A, “Method and compositions for suppressing the nitrification of ammonium in plant growth medium” (American Cyanamid Company, priority 1986, dated 1988):
Where “and” joins values, the source holds several entries; their conditions need not be identical. Equal entries are not always repeated. Structures can show the parent of a compound that is named as a salt.

Columns and labels:
[1] = test system: Nitrosomonos; experiment: Nitrification of ammonium amended field soil incubated at 38° C. (ammonium recovery, nitrate); settings: soil 38° C.; for Ammonium Recovery, reported as nitrogen / Nitrate, reported as nitrogen: 0.50 ppm, 200 ppm N
Procedure: Determination of Nitrification Inhibition of Soil amended with 200 ppm of nitrogen as ammonium sulfate and 0.5 ppm of Nitrapyrin or 0.5 ppm of Maduramicin, monoammonium salt.
Soil samples prepared as described in Example 1 above are incubated at 38° C. for 20 weeks. Samples are taken at intervals during the 20 week period, extracted with 2M KCl (10:1 v/w), and assayed for ammonium nitrite and nitrate by standard steam distillation methods.

[2] = test system: corn (Pioneer 3352); experiment: Field evaluation: yield of corn, sandy loam plots; assay type: in vivo; settings: for AVERAGE YIELD 4-REPLICATES: sandy loam
Description: (§1) Field Evaluation: Field evaluations are based on the N content of corn leaf tissue and grain yield utilizing two soil types. Replicate (4X) field plots are established at two different locations, one having (I) silt loam soil and one (II) with sandy loam soil. These soils had been previously cropped to non-fertilized corn to reduce the level of residual N. Maduramicin monoammonium salt is applied (0.25, 0.125, 0.07 ppm) with NH3 (84 or 168 kg N/ha) through a "downstream" by an injection system into silt loam plots. Nitrapyrin (0.25 ppm=0.56 kg a.i./ha), nitrogen checks, benzyl alcohol (1.16L/ha) (BA) and a O nitrogen check are included for comparison. Individual replicate plot sizes are 3.04M×22.8M (4, 76-cm corn rows×22.8M long) Anhydrous ammonia are injected on 76-cm centers.
Plots are then planted with corn the day following treatment. Dekalb T2000 is planted 10 May on silt loam plots and Pioneer 3352 is planted 11 May in sandy loam plots.
(§2) Corn ear leaf tissues collected at silking on silt loam plots or 60 days post silking (on silt loam and sandy loam plots) are collected from each plot and assayed for total N (AOAC procedures). Grain yields are determined by harvesting the two center rows×15.2 m of each plot.

[3] = test system: corn (Dekalb T2000, B73×LH 38); experiment: Field evaluation: corn ear leaf tissue nitrogen, silt loam plots; assay type: in vivo; settings: inhibitor 0.11 kg/ha, ear leaf at silking
[4] = test system: corn (Dekalb T2000, B73×LH 38); experiment: as above; assay type: in vivo; settings: for Corn Leaf Tissue Analysis (total N): ear leaf at silking
Description: as §1
(§3) Urea, treated or non-treated with Maduramicin monoammonium salt is broadcast on the surface of sandy loam plots. Plots are then planted with corn the day following treatment. Dekalb T2000 is planted 10 May on silt loam plots and Pioneer 3352 is planted 11 May in sandy loam plots.
as §2

[5] = test system: corn (Dekalb T2000, B73×LH 38); experiment: Field evaluation: yield of corn, silt loam location; assay type: in vivo
Description: as §1, §3, §2

[6] = test system: Nitrobacter spp.; experiment: Nitrite nitrogen in ammonium amended soil incubated at 25° C.; settings: soil 25° C., 200 ppm N
Procedure: Determination of nitrite nitrogen and nitrate nitrogen in soil prepared in Example 1 above, which is amended with 200 ppm of nitrogen as aqueous ammonium sulfate, […], is determined using the nitrite and nitrate analysis of the American Organization of Analytical Chemists (AOAC pp. 653-655).

[7] = test system: Urease; experiment: Urease activity of urea amended soil, 38° C., 24 hrs; assay type: biochemical
Procedure: Urease activity: Five grams (5 g) oven-dry soil is treated with 5 ml of aqueous urea solution (1000 ug/g soil), with or without the test compound, and incubated in 65 ml screw-capped glass bottles at 38° C. for 24 hrs. Three replicates of each treatment are established. Phenylphosphorodiamide (PPD) is used as a urease inhibitor for comparison with Maduramicin monoammonium salt. Urea remaining is determined after extracting the soil for 60 minutes (with shaking) with 50 ml of 2M KCl containing 0.5 ug/ml of phenylmercuric acetate and filtering the soil suspension. Urea in the extract is determined colorimetrically (Douglas & Bremner, 1970). The percentage inhibition is calculated from (A-B)/(C-B) X 100-% inhibition; where A=the amount of urea found after incubation with the compound, B=the amount of urea found in the non-treated soil, and C=the amount of urea added.

CO[C@@H]1[C@@H](OC)[C@H](C)[C@@](O)(CC(=O)O)O[C@H]1[C@H](C)[C@H]1O[C@@]2(CC[C@@](C)([C@H]3CC[C@@](C)([C@@H]4O[C@@H]([C@H]5O[C@](C)(O)[C@H](C)C[C@@H]5C)C[C@@H]4O[C@@H]4C[C@H](OC)[C@@H](OC)[C@H](C)O4)O3)O2)C[C@H](O)[C@H]1C [Maduramicin monoammonium salt, Maduramicin]
Activity against Nitrosomonos, in words ([1]; 0.5 ppm): good activity
Nitrification inhibition compared with nitrapyrin, in words ([1]; 0.5 ppm, 20 weeks): slightly better than that obtained with nitrapyrin
Ammonium Recovery, reported as nitrogen ([1]; week 0): 193 ppm
Nitrate, reported as nitrogen ([1]; week 0): 18 ppm
Ammonium Recovery, reported as nitrogen ([1]; week 1): 178 ppm
Nitrate, reported as nitrogen ([1]; week 1): 20 ppm
Ammonium Recovery, reported as nitrogen ([1]; week 2): 193 ppm
Nitrate, reported as nitrogen ([1]; week 2): 17 ppm
Ammonium Recovery, reported as nitrogen ([1]; week 4): 199 ppm
Nitrate, reported as nitrogen ([1]; week 4): 9 ppm
Ammonium Recovery, reported as nitrogen ([1]; week 7): 208 ppm
Nitrate, reported as nitrogen ([1]; week 7): 15 ppm
Ammonium Recovery, reported as nitrogen ([1]; week 9): 168 ppm
Nitrate, reported as nitrogen ([1]; week 9): 52 ppm
Ammonium Recovery, reported as nitrogen ([1]; week 12): 154 ppm
Nitrate, reported as nitrogen ([1]; week 12): 76 ppm
Ammonium Recovery, reported as nitrogen ([1]; week 16): 129 ppm
Nitrate, reported as nitrogen ([1]; week 16): 112 ppm
Ammonium Recovery, reported as nitrogen ([1]; week 20): 95 ppm
Nitrate, reported as nitrogen ([1]; week 20): 111 ppm
Yield at the sandy loam location, in words ([2]; 0.56 kg a.i./hectare, both rates of NH3 and the lower rate of urea): significantly higher
AVERAGE YIELD 4-REPLICATES ([2]; N 84 kg/ha as NH3, chemical 0.11 kg/ha): 155.7 HECTOLITERS/HECTARE
AVERAGE YIELD 4-REPLICATES ([2]; N 84 kg/ha as NH3, chemical 0.28 kg/ha): 159.2 HECTOLITERS/HECTARE
AVERAGE YIELD 4-REPLICATES ([2]; N 84 kg/ha as NH3, chemical 0.56 kg/ha): 165.3 HECTOLITERS/HECTARE
AVERAGE YIELD 4-REPLICATES ([2]; N 168 kg/ha as NH3, chemical 0.11 kg/ha): 163.6 HECTOLITERS/HECTARE
AVERAGE YIELD 4-REPLICATES ([2]; N 168 kg/ha as NH3, chemical 0.28 kg/ha): 174.9 HECTOLITERS/HECTARE
AVERAGE YIELD 4-REPLICATES ([2]; N 168 kg/ha as NH3, chemical 0.56 kg/ha): 176.6 HECTOLITERS/HECTARE
Corn Leaf Tissue Analysis (total N) ([3]; NH3 84 kg N/ha): 257 10^2 ug/g
Corn Leaf Tissue Analysis (total N) ([3]; NH3 168 kg N/ha): 268 10^2 ug/g
Corn Leaf Tissue Analysis (total N) ([4]; inhibitor 0.28 kg/ha, NH3 84 kg N/ha): 256 10^2 ug/g
Corn Leaf Tissue Analysis (total N) ([4]; inhibitor 0.28 kg/ha, NH3 168 kg N/ha): 275 10^2 ug/g
Corn Leaf Tissue Analysis (total N) ([4]; inhibitor 0.56 kg/ha, NH3 84 kg N/ha): 258 10^2 ug/g
Corn Leaf Tissue Analysis (total N) ([4]; inhibitor 0.56 kg/ha, NH3 168 kg N/ha): 281 10^2 ug/g
More nitrogen in leaf tissue than control plots with similar nitrogen ([4]; silt loam plots): 15-25%
Tissue N compared with nitrapyrin-treated plants, in words ([4]; three rates, silt loam plots): slightly higher than nitrapyrin-treated plants
AVERAGE YIELD 4-REPLICATES ([5]; N 84 kg/ha, chemical 0.11 kg/ha): 136.6 HECTOLITERS/HECTARE
AVERAGE YIELD 4-REPLICATES ([5]; N 84 kg/ha, chemical 0.28 kg/ha): 129.6 HECTOLITERS/HECTARE
AVERAGE YIELD 4-REPLICATES ([5]; N 84 kg/ha, chemical 0.56 kg/ha): 131.4 HECTOLITERS/HECTARE
AVERAGE YIELD 4-REPLICATES ([5]; N 168 kg/ha, chemical 0.11 kg/ha): 154.0 HECTOLITERS/HECTARE
AVERAGE YIELD 4-REPLICATES ([5]; N 168 kg/ha, chemical 0.28 kg/ha): 146.2 HECTOLITERS/HECTARE
AVERAGE YIELD 4-REPLICATES ([5]; N 168 kg/ha, chemical 0.56 kg/ha): 147.9 HECTOLITERS/HECTARE
Concentration of nitrite nitrogen ([6]; 0.10 ppm, week 0): 6 ppm
Concentration of nitrite nitrogen ([6]; 0.10 ppm, week 1): 17 ppm
Concentration of nitrite nitrogen ([6]; 0.10 ppm, week 2): 2 ppm
Concentration of nitrite nitrogen ([6]; 0.10 ppm, week 4): 3 ppm
Concentration of nitrite nitrogen ([6]; 0.10 ppm, week 7): 12 ppm
Concentration of nitrite nitrogen ([6]; 0.10 ppm, week 9): 49 ppm
Concentration of nitrite nitrogen ([6]; 0.10 ppm, week 12): 9 ppm
Concentration of nitrite nitrogen ([6]; 0.10 ppm, week 16): 14 ppm
Concentration of nitrite nitrogen ([6]; 0.10 ppm, week 20): 56 ppm
Concentration of nitrite nitrogen ([6]; 0.25 ppm, week 0): 7 ppm
Concentration of nitrite nitrogen ([6]; 0.25 ppm, week 1): 2 ppm
Concentration of nitrite nitrogen ([6]; 0.25 ppm, week 2): 7 ppm
Concentration of nitrite nitrogen ([6]; 0.25 ppm, week 4): 0 ppm
Concentration of nitrite nitrogen ([6]; 0.25 ppm, week 7): -5 ppm
Concentration of nitrite nitrogen ([6]; 0.25 ppm, week 9): 12 ppm
Concentration of nitrite nitrogen ([6]; 0.25 ppm, week 12): 0 ppm
Concentration of nitrite nitrogen ([6]; 0.25 ppm, week 16): -2 ppm
Concentration of nitrite nitrogen ([6]; 0.25 ppm, week 20): 33 ppm
Concentration of nitrite nitrogen ([6]; 0.50 ppm, week 0): 8 ppm
Concentration of nitrite nitrogen ([6]; 0.50 ppm, week 1): 10 ppm
Concentration of nitrite nitrogen ([6]; 0.50 ppm, week 2): 4 ppm
Concentration of nitrite nitrogen ([6]; 0.50 ppm, week 4): 4 ppm
Concentration of nitrite nitrogen ([6]; 0.50 ppm, week 7): -8 ppm
Concentration of nitrite nitrogen ([6]; 0.50 ppm, week 9): -4 ppm
Concentration of nitrite nitrogen ([6]; 0.50 ppm, week 12): 4 ppm
Concentration of nitrite nitrogen ([6]; 0.50 ppm, week 16): -13 ppm
Concentration of nitrite nitrogen ([6]; 0.50 ppm, week 20): 14 ppm
% INHIBITION (urease) ([7]; (A-B)/(C-B) X 100, urea 1000 ug/g soil): 16%
AVERAGE amount of urea remaining ([7]; average of 3 replicates, urea 1000 ug/g soil): 483 µg/g
AMOUNT REMAINING (urea) ([7]; single replicates, urea 1000 ug/g soil): 492 µg/g and 477 µg/g
